# Test results from patent US8034822B2, “Glucokinase activators” (Takeda San Diego, Inc., priority 2006, dated 2011).
# Target: T1, glucokinase (GK) (Homo sapiens, UniProt P35557)
# T1 construct: I.D. No. 1 corresponds to residues 12-465 of glucokinase; made in house; host or cells: E. coli DH10b-T1r, pFLAG-CTC plasmid
# T1 sequence (P35557 with tags, fused parts or gaps isoform P35557-2): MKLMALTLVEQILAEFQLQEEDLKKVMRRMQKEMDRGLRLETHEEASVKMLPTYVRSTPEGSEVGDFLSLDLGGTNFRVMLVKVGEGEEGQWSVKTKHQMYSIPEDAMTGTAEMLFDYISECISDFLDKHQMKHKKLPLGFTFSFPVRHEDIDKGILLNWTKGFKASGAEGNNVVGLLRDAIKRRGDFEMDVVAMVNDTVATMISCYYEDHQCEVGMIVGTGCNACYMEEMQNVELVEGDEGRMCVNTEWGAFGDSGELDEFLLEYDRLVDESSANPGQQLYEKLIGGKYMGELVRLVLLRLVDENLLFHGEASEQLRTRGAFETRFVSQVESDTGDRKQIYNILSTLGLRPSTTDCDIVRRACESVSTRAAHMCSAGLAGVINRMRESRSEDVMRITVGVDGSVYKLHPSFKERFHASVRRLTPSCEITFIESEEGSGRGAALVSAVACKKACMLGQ
# Assay: enzymatic glucokinase activity assay (ATP consumption, KinaseGlo luminescence)
# Format: biochemical
# Conditions: Against GK; Kact = concentration giving 50% of maximal increase in GK activity; 5 μM ATP, 5 mM Glucose, 60 min room temperature; values given as bins; read-out: pKact
# From the text: The activity of compounds as glucokinase activators may be assayed in vitro, in vivo or in a cell line. Provided below is an enzymatic glucokinase activity assay.
# Purified glucokinase may be obtained as follows. DNA encoding residues 12-465 of the full-length sequence of the human enzyme may be amplified by PCR and cloned into the HindIII and EcoRI sites of pFLAG-CTC (Sigma). SEQ. I.D. No. 1 corresponds to residues 12-465 of glucokinase.
# The expression of recombinant glucokinase protein may be carried out by transformation and growth of DH10b-T1r E. coli cells incorporating the (pFLAG-CTC) plasmid in LB media. Protein expression can be induced in this system by the addition of IPTG to the culture medium.
# Recombinant protein may be isolated from cellular extracts by passage over Sepharose Q Fast Flow resin (Pharmacia). This partially purified GK extract may then be further purified by a second passage over Poros HQ10 (Applied Biosystems). The purity of GK may be determined on denaturing SDS-PAGE gel. Purified GK may then be concentrated to a final concentration of 20.0 mg/ml. After flash freezing in liquid nitrogen, the proteins can be stored at −78° C. in a buffer containing 25 mM TRIS-HCl pH 7.6, 50 mM NaCl, and 0.5 mM TCEP.
# The activation properties of compounds for GK may be determined using a black 384-well-plate format under the following reaction conditions: 25 mM Hepes pH 7.2, 25 mM NaCl, 10 mM MgCl2, 0.01% Brij35, 1 mM DTT, 5 μM ATP, 5 mM Glucose 2% DMSO. The amount of ATP consumed may be determined quantitatively by addition of equal volume of luciferase reagent (luciferase+beetle luciferin—KinaseGlo Luminescent Kinase Assay kit from Promega). The luminescence intensity may be measured by using the Analyst HT from LJL Biosystems.
# The assay reaction may be initiated as follows: 4 μl of substrate mixture (12.5 μM ATP and 12.5 mM Glucose) was added to each well of the plate, followed by the addition of 2 μl of activator (2 fold serial dilutions for 11 data points for each activator) containing 10% DMSO. 4 μL of 1.25 nM GK solution may be added to initiate the reaction. The reaction mixture may then be incubated at room temperature for 60 min, and quenched and developed by addition of 10 μL of luciferase reagent. Luminescence intensities of the resulting reaction mixtures may be measured after a 10 min incubation at room temperature. The luminescence intensity may be measured by using the Analyst HT from LJL Biosystems.
# pKact and % ACTmax values may be calculated by non-linear curve fitting of the compound concentrations and luminescence intensities to a standard inhibition/activation equation.
row,EC50 [nM],Compound
1,501 to 794,"O=C(Nc1nc2ccccc2s1)C(CC1CCCCC1)n1cnc2ccc(F)cc2c1=O (centres unmarked) [Compound 35, N-(benzo[d]thiazol-2-yl)-3-cyclohexyl-2-(6-fluoro-4-oxoquinazolin-3(4H)-yl)propanamide]"
2,≥ 2000,"O=C(Nc1ccccn1)C(CC1CCCCC1)n1cnc2ccc(F)cc2c1=O (centres unmarked) [Compound 36, 3-cyclohexyl-2-(6-fluoro-4-oxoquinazolin-3(4H)-yl)-N-(pyridin-2-yl)propanamide]"
3,≥ 2000,"O=C(Nc1ncc(Cl)s1)C(CC1CCCCC1)n1c(=O)[nH]c2ccc(F)cc2c1=O (centres unmarked) [Compound 38, N-(5-chlorothiazol-2-yl)-3-cyclohexyl-2-(6-fluoro-2,4-dioxo-1,2-dihydroquinazolin-3(4H)-yl)propanamide]"
4,≥ 2000,"Cn1c(=O)n(C(CC2CCCCC2)C(=O)Nc2nccs2)c(=O)c2cc(Cl)ccc21 (centres unmarked) [Compound 39, 2-(6-chloro-1-methyl-2,4-dioxo-1,2-dihydroquinazolin-3(4H)-yl)-3-cyclohexyl-N-(thiazol-2-yl)propanamide]"
5,1000 to 1580,"O=C(Nc1ncc(Cl)s1)C(CC1CCCCC1)n1cnc2ccc(Cl)cc2c1=O (centres unmarked) [Compound 47, 2-(6-Chloro-4-oxo-4H-quinazolin-3-yl)-N-(5-chloro-thiazol-2-yl)-3-cyclohexyl-propionamide]"
6,≥ 2000,"O=C(Nc1ncc(Cl)s1)C(CC1CCCCC1)n1cnc2ccc(F)cc2c1=O (centres unmarked) [Compound 50, N-(5-Chloro-thiazol-2-yl)-3-cyclohexyl-2-(6-fluoro-4-oxo-4H-quinazolin-3-yl)-propionamide]"
7,501 to 794,"CS(=O)(=O)c1ccc2c(=O)n(C(CC3CCCCC3)C(=O)Nc3ncc(Cl)s3)c(=O)[nH]c2c1 (centres unmarked) [Compound 55, N-(5-Chloro-thiazol-2-yl)-3-cyclohexyl-2-(7-methanesulfonyl-2,4-dioxo-1,4-dihydro-2H-quinazolin-3-yl)-propionamide]"
8,1000 to 1580,"CS(=O)(=O)c1ccc2c(=O)n(C(CC3CCCCC3)C(=O)Nc3ncc(Cl)s3)cnc2c1 (centres unmarked) [Compound 56, N-(5-Chloro-thiazol-2-yl)-3-cyclohexyl-2-(7-methanesulfonyl-4-oxo-4H-quinazolin-3-yl)-propionamide]"
9,≥ 2000,"O=C(Nc1ncc(F)s1)C(CC1CCCCC1)n1c(=O)[nH]c2ccc(F)cc2c1=O (centres unmarked) [Compound 57, 3-Cyclohexyl-2-(6-fluoro-2,4-dioxo-1,4-dihydro-2H-quinazolin-3-yl)-N-(5-fluoro-thiazol-2-yl)-propionamide]"
10,≥ 2000,"CS(=O)(=O)c1ccc2c(=O)n(C(CC3CCCCC3)C(=O)Nc3ccccn3)cnc2c1 (centres unmarked) [Compound 60, 3-Cyclohexyl-2-(7-methanesulfonyl-4-oxo-4H-quinazolin-3-yl)-N-pyridin-2-yl-propionamide]"
11,≥ 2000,"Cc1cnc(NC(=O)C(CC2CCCCC2)n2cnc3cc(S(C)(=O)=O)ccc3c2=O)s1 (centres unmarked) [Compound 61, 3-Cyclohexyl-2-(7-methanesulfonyl-4-oxo-4H-quinazolin-3-yl)-N-(5-methyl-thiazol-2-yl)-propionamide]"
12,≥ 2000,"CS(=O)(=O)c1ccc2c(=O)n(C(CC3CCCCC3)C(=O)Nc3ccc(C(=O)O)cn3)c(=O)[nH]c2c1 (centres unmarked) [Compound 64, 6-[3-Cyclohexyl-2-(7-methanesulfonyl-2,4-dioxo-1,4-dihydro-2H-quinazolin-3-yl)-propionylamino]-nicotinic acid]"
13,≥ 2000,"CS(=O)(=O)c1ccc2c(=O)n(C(CC3CCCCC3)C(=O)Nc3ccc(C(=O)O)cn3)cnc2c1 (centres unmarked) [Compound 65, 6-[3-Cyclohexyl-2-(7-methanesulfonyl-4-oxo-4H-quinazolin-3-yl)-propionylamino]-nicotinic acid]"
14,≥ 2000,"CS(=O)(=O)c1ccc2c(=O)n(C(CC3CCCCC3)C(=O)Nc3ccc(F)cn3)cnc2c1 (centres unmarked) [Compound 70, 3-Cyclohexyl-N-(5-fluoro-pyridin-2-yl)-2-(7-methanesulfonyl-4-oxo-4H-quinazolin-3-yl)-propionamide]"
15,1000 to 1580,"CCS(=O)(=O)c1ccc2c(=O)n(C(CC3CCCCC3)C(=O)Nc3ccc(F)cn3)cnc2c1 (centres unmarked) [Compound 71, 3-Cyclohexyl-2-(7-ethanesulfonyl-4-oxo-4H-quinazolin-3-yl)-N-(5-fluoro-pyridin-2-yl)-propionamide]"
16,501 to 794,"CCS(=O)(=O)c1ccc2c(=O)n(C(CC3CCCCC3)C(=O)Nc3ccc(Cl)cn3)cnc2c1 (centres unmarked) [Compound 72, N-(5-Chloro-pyridin-2-yl)-3-cyclohexyl-2-(7-ethanesulfonyl-4-oxo-4H-quinazolin-3-yl)-propionamide]"
17,1000 to 1580,"O=C(Nc1ccc(F)cn1)C(CC1CCCCC1)n1cnc2cc(S(=O)(=O)C3CC3)ccc2c1=O (centres unmarked) [Compound 74, 3-Cyclohexyl-2-(7-cyclopropanesulfonyl-4-oxo-4H-quinazolin-3-yl)-N-(5-fluoro-pyridin-2-yl)-propionamide]"
18,501 to 794,"O=C(Nc1ccc(Cl)cn1)C(CC1CCCCC1)n1cnc2cc(S(=O)(=O)C3CC3)ccc2c1=O (centres unmarked) [Compound 75, N-(5-Chloro-pyridin-2-yl)-3-cyclohexyl-2-(7-cyclopropanesulfonyl-4-oxo-4H-quinazolin-3-yl)-propionamide]"
19,≥ 2000,"CCOC(=O)CCc1ccc(NC(=O)C(CC2CCCCC2)n2cnc3cc(S(C)(=O)=O)ccc3c2=O)nc1 (centres unmarked) [Compound 76, 3-{6-[3-Cyclohexyl-2-(7-methanesulfonyl-4-oxo-4H-quinazolin-3-yl)-propionylamino]-pyridin-3-yl}-propionic acid ethyl ester]"
20,1000 to 1580,"CS(=O)(=O)c1ccc2c(=O)n(C(Cc3c(F)cccc3F)C(=O)Nc3ccc(Cl)cn3)cnc2c1 (centres unmarked) [Compound 77, N-(5-Chloro-pyridin-2-yl)-3-(2,6-difluoro-phenyl)-2-(7-methanesulfonyl-4-oxo-4H-quinazolin-3-yl)-propionamide]"
21,501 to 794,"CS(=O)(=O)c1ccc2ncn(C(CC3CCCCC3)C(=O)Nc3ccc(Cl)cn3)c(=O)c2c1 (centres unmarked) [Compound 79, N-(5-Chloro-pyridin-2-yl)-3-cyclohexyl-2-(6-methanesulfonyl-4-oxo-4H-quinazolin-3-yl)-propionamide]"
22,≤ 398,"NC(=O)c1ccc(NC(=O)C(CC2CCCCC2)n2cnc3cc(S(=O)(=O)C4CCCC4)ccc3c2=O)nc1 (centres unmarked) [Compound 80, 6-[3-Cyclohexyl-2-(7-cyclopentanesulfonyl-4-oxo-4H-quinazolin-3-yl)-propionylamino]-nicotinamide]"
23,≤ 398,"CCS(=O)(=O)c1ccc2c(=O)n(C(CC3CCCCC3)C(=O)Nc3ccc(C(N)=O)cn3)cnc2c1 (centres unmarked) [Compound 81, 6-[3-Cyclohexyl-2-(7-ethanesulfonyl-4-oxo-4H-quinazolin-3-yl)-propionylamino]-nicotinamide]"
24,≤ 398,"COC(=O)c1ccc(NC(=O)C(CC2CCCCC2)n2cnc3cc(S(=O)(=O)C4CCCC4)ccc3c2=O)nc1 (centres unmarked) [Compound 83, 6-[3-Cyclohexyl-2-(7-cyclopentanesulfonyl-4-oxo-4H-quinazolin-3-yl)-propionylamino]-nicotinic acid methyl ester]"
25,501 to 794,"CC(C)S(=O)(=O)c1ccc2ncn(C(CC3CCCCC3)C(=O)Nc3ccc(Cl)cn3)c(=O)c2c1 (centres unmarked) [Compound 84, N-(5-Chloro-pyridin-2-yl)-3-cyclohexyl-2-[4-oxo-6-(propane-2-sulfonyl)-4H-quinazolin-3-yl]-propionamide]"
26,501 to 794,"COC(=O)c1ccc(NC(=O)C(CC2CCCCC2)n2cnc3cc(S(=O)(=O)CC4CC4)ccc3c2=O)nc1 (centres unmarked) [Compound 90, 6-[3-Cyclohexyl-2-(7-cyclopropylmethanesulfonyl-4-oxo-4H-quinazolin-3-yl)-propionylamino]-nicotinic acid methyl ester]"
